Laboratory results published in US20160200684A2, “Pharmaceutical Compositions for the Treatment of CFTR-Mediated Disorders” (Vertex Pharmaceuticals Incorporated, priority 2012, published 2016).
Read-outs that look alike come from different tables or passages of the source. Values belong to the compound of their own block, whether it stands above or below them.

Legend:
Assay type in all cases: physicochemical
[1] = Solubility of Compound 3 in solvents
[2] = Stability of Compound 2 aqueous suspension in 0.5% methylcellulose; settings: room temperature; methylcellulose formulation
Experimental: A 100 mL stock solution of 0.5% by weight methylcellulose was prepared by stirring 0.5 g of methylcellulose with 99.5 g of purified water until completely dissolved (approximately 24 hours). The appropriate amount of Compound 2 HCl salt based on free base was weighed and transferred to a scintillation vial. The desired amount of 0.5% methylcellulose stock solution for making a 6 mg/mL based on free base (6.48 mg/mL based on HCl salt) was transferred into the vial and sonicated for 20 minutes and homogenized for approximately 5 minutes.

[3] = Stability of Compound 2 aqueous suspension in 0.5% methylcellulose/0.5% polysorbate 80; settings: for conversion of salt form in suspension vehicle: at T(0), XRPD, 1H NMR
Experimental: Methylcellulose (0.5 g) was combined with 99.0 g of purified water in a beaker and stirred in a 60-70° C. water bath for 30′-1 hr. The solution was stirred in a 0° C. ice/water bath for another 30′ or until clear. Polysorbate 80 (0.5 g) was added and stirring at room temperature followed for 30′-1 hr or until a clear solution was obtained.
The appropriate amount of Compound 2 HCl salt based on free base was weighed and transferred to a scintillation vial. The desired amount of 0.5% methylcellulose and 0.5% polysorbate 80 stock solution for making a 6 mg/mL based on free base (6.48 mg/mL based on HCl salt) was transferred into the vial and sonicated for 20 minutes with alternate stirring for 1-2 minutes. The solution was homogenized for approximately 1-2 minutes.

[4] = 0.5% methylcellulose/0.5% polysorbate 80

solubility ([1]; first solvent: ethyl acetate, ethanol, isopropyl alcohol, or acetone): greater than 20 mg/mL
solubility ([1]; organic solvent or mixture, acetonitrile, methanol, ethanol, isopropyl alcohol, acetone, read-out: solubility): > 20 mg/mL
solubility ([1]; second solvent: heptane or water, water, read-out: solubility (poor)): < 1 mg/mL
Compound: CC(C)(CO)c1cc2cc(NC(=O)C3(c4ccc5c(c4)OC(F)(F)O5)CC3)c(F)cc2n1C[C@H](O)CO [Compound 3, (S)-1-(2,2-difluorobenzo[d][1,3]dioxol-5-yl)-N-(1-(2,3-dihydroxypropyl)-6-fluoro-2-(1-hydroxy-2-methylpropan-2-yl)-1H-indol-5-yl)cyclopropanecarboxamide]

Compound: Cc1ccc(NC(=O)C2(c3ccc4c(c3)OC(F)(F)O4)CC2)nc1-c1cccc(C(=O)O)c1 [Compound 2 Form I, 3-(6-(1-(2,2-difluorobenzo[d][1,3]dioxol-5-yl)cyclopropanecarboxamido)-3-methylpyridin-2-yl)benzoic acid]
physically and chemically stable, no sign of chemical degradation [2]: at least 24 hrs
chemically stable, no sign of chemical degradation ([3]; room temperature, 0.5% methylcellulose/0.5% polysorbate 80 formulation vehicle): at least 24 hrs

Compound: Cc1ccc(NC(=O)C2(c3ccc4c(c3)OC(F)(F)O4)CC2)nc1-c1cccc(C(=O)O)c1.Cl [Compound 2 HCl salt, 3-(6-(1-(2,2-Difluorobenzo [d][1,3]dioxol-5-yl)cyclopropanecarboxamido)-3-methylpyridin-2-yl)benzoic acid.HCl salt]
physical stability of suspension [3, 4]: not physically stable
conversion of salt form in suspension vehicle [3, 4]: quickly converted to Compound 2 Form I
conversion of salt form in suspension vehicle ([3]; 0.5% methylcellulose/0.5% polysorbate 80, listed as HCl salt): quickly converted to Compound 2 Form I at T(0)
